Measured values reported in patent US6358885B1, “Substituted phenylheterocyclic herbicides” (Mississippi State University, priority 1992, dated 2002).

What was measured:
[1] = system: cheatgrass; assay: Test B preemergence/postemergence greenhouse plant response rating 0 to 10; type: in vivo, Bromus secalinus; conditions: 0 to 10 scale
How it was run: (§1)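 Planted seeds are treated preemergence with compound dissolved in a non-phytotoxic solvent, while postemergence applications go onto plants of two to eighteen cm. Plants stay in the greenhouse twelve to sixteen days and are then rated visually relative to controls.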

[2] = system: corn; assay: as above; type: in vivo, Zea mays; conditions: 0 to 10 scale
How it was run: as §1

[3] = system: cotton; assay: as above; type: in vivo, Gossypium hirsutum; conditions: 0 to 10 scale
How it was run: as §1

[4] = system: lambsquarters; assay: as above; type: in vivo, Chenopodium album; conditions: 0 to 10 scale
How it was run: as §1

[5] = system: rice; assay: as above; type: in vivo, Oryza sativa; conditions: 0 to 10 scale
How it was run: as §1

[6] = system: wheat; assay: as above; type: in vivo, Triticum aestivum; conditions: 0 to 10 scale
How it was run: as §1

[7] = system: wild oat; assay: as above; type: in vivo, Avena fatua; conditions: 0 to 10 scale
How it was run: as §1

[8] = system: bedstraw; assay: Test C preemergence/postemergence greenhouse plant response rating 0 to 100; type: in vivo, Galium aparine; conditions: POSTEMERGENCE; for Plant response rating, Bedstraw: 0 to 100 scale
How it was run: (§2)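 Compounds in non-phytotoxic solvent went onto sandy loam before emergence (seeded one day earlier) or onto plants at the one-to-four leaf stage. Duck salad was treated via flood water (~2.5 cm, maintained) over silt loam.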

[9] = system: cotton; assay: as above; type: in vivo, Gossypium hirsutum; conditions: POSTEMERGENCE; for Plant response rating, Cotton: 0 to 100 scale
How it was run: as §2

[10] = system: crabgrass; assay: as above; type: in vivo, Digitaria sanguinalis; conditions: POSTEMERGENCE; for Plant response rating, Crabgrass: 0 to 100 scale
How it was run: as §2

[11] = system: downy brome; assay: as above; type: in vivo, Bromus tectorum; conditions: POSTEMERGENCE; for Plant response rating Downy Brome: 0 to 100 scale
How it was run: as §2

[12] = system: giant foxtail; assay: as above; type: in vivo, Setaria faberii; conditions: POSTEMERGENCE; for Plant response rating, Giant foxtail: 0 to 100 scale
How it was run: as §2

[13] = system: lambsquarters; assay: as above; type: in vivo, Chenopodium album; conditions: POSTEMERGENCE; for Plant response rating Lambsquarters: 0 to 100 scale
How it was run: as §2

[14] = system: sorghum; assay: as above; type: in vivo, Sorghum bicolor; conditions: POSTEMERGENCE; for Plant response rating, Sorghum: 0 to 100 scale
How it was run: as §2

[15] = system: sugar beet; assay: as above; type: in vivo, Beta vulgaris; conditions: POSTEMERGENCE; for Plant response rating, Sugar beet: 0 to 100 scale
How it was run: as §2

[16] = system: velvetleaf; assay: as above; type: in vivo, Abutilon theophrasti; conditions: POSTEMERGENCE; for Plant response rating, Velvetleaf: 0 to 100 scale
How it was run: as §2

[17] = system: duck salad; assay: Test C flood test plant response rating 0 to 100; type: in vivo, Heteranthera limosa; conditions: for Plant response rating Duck salad: flood test species listed under POSTEMERGENCE, 0 to 100 scale
How it was run: as §2

[18] = system: barnyardgrass; assay: Test C flood test plant response rating 0 to 100; type: in vivo, Echinochloa crus-galli; conditions: for Plant response rating Barnyardgrass 2: flood test species listed under POSTEMERGENCE, 0 to 100 scale
How it was run: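 Compounds in non-phytotoxic solvent applied preemergence to sandy loam one day after planting, postemergence at the 1–4 leaf stage, or to ~2.5 cm floodwater over silt loam.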

[19] = POSTEMERGENCE section, flood test, Rate 4 g/ha
[20] = Rate 16 g/ha, under POSTEMERGENCE head (flood test species)

CCC(C)Oc1cc(-c2nn3c(c2Cl)CCCC3)c(F)cc1Cl (centres unmarked) [Compound 48]
40: Plant response rating (0 to 100), Bedstraw ([8]; Rate 16 g/ha) | Plant response rating, Crabgrass ([10]; 250 g/ha) | Plant response rating Downy Brome ([11]; 62 g/ha) | Plant response rating, Giant foxtail ([12]; 62 g/ha) | Plant response rating (0 to 100), Sorghum ([14]; Rate 16 g/ha) | Plant response rating (0 to 100), Barnyardgrass 2 [18, 20]
4: Plant response rating, Wild oat ([7]; POSTEMERGENCE, Rate 50 g/ha)
3: Plant response rating, Corn ([2]; POSTEMERGENCE, Rate 50 g/ha) | Plant response rating, Corn ([2]; POSTEMERGENCE, Rate 200 g/ha) | Plant response rating, Rice ([5]; POSTEMERGENCE, Rate 50 g/ha)
8: Plant response rating, Rice ([5]; Rate 200 g/ha, POSTEMERGENCE)
9: Plant response rating, Cotton ([3]; Rate 200 g/ha, PREEMERGENCE)
70: Plant response rating Downy Brome ([11]; 250 g/ha) | Plant response rating, Sorghum ([14]; 250 g/ha)
100: Plant response rating, Bedstraw ([8]; 62 g/ha) | Plant response rating, Bedstraw ([8]; 250 g/ha) | Plant response rating, Cotton ([9]; 62 g/ha) | Plant response rating, Cotton ([9]; 250 g/ha) | Plant response rating (0 to 100), Cotton ([9]; Rate 16 g/ha) | Plant response rating Lambsquarters ([13]; 62 g/ha) | Plant response rating Lambsquarters ([13]; 250 g/ha) | Plant response rating, Sugar beet ([15]; 62 g/ha) | Plant response rating, Sugar beet ([15]; 250 g/ha) | Plant response rating (0 to 100), Sugar beet ([15]; Rate 4 g/ha) | Plant response rating (0 to 100), Sugar beet ([15]; Rate 16 g/ha) | Plant response rating Barnyardgrass 2 ([18]; 250 g/ha)
10: Plant response rating, Cotton ([3]; POSTEMERGENCE, Rate 50 g/ha) | Plant response rating, Cotton ([3]; POSTEMERGENCE, Rate 200 g/ha) | Plant response rating, Lambsquarter ([4]; POSTEMERGENCE, Rate 50 g/ha) | Plant response rating, Lambsquarter ([4]; PREEMERGENCE, Rate 50 g/ha) | Plant response rating, Lambsquarter ([4]; Rate 200 g/ha, POSTEMERGENCE) | Plant response rating, Lambsquarter ([4]; Rate 200 g/ha, PREEMERGENCE) | Plant response rating (0 to 100), Crabgrass ([10]; Rate 4 g/ha) | Plant response rating (0 to 100), Duck salad [17, 20]
5: Plant response rating, Wheat ([6]; POSTEMERGENCE, Rate 50 g/ha)
20: Plant response rating (0 to 100), Bedstraw ([8]; Rate 4 g/ha) | Plant response rating (0 to 100), Crabgrass ([10]; Rate 16 g/ha) | Plant response rating (0 to 100), Downy Brome ([11]; Rate 16 g/ha) | Plant response rating (0 to 100), Giant foxtail ([12]; Rate 4 g/ha) | Plant response rating (0 to 100), Barnyardgrass 2 [18, 19]
90: Plant response rating (0 to 100), Cotton ([9]; Rate 4 g/ha) | Plant response rating, Giant foxtail ([12]; 250 g/ha) | Plant response rating, Velvetleaf ([16]; 62 g/ha) | Plant response rating, Velvetleaf ([16]; 250 g/ha)
30: Plant response rating, Crabgrass ([10]; 62 g/ha) | Plant response rating (0 to 100), Giant foxtail ([12]; Rate 16 g/ha) | Plant response rating (0 to 100), Sorghum ([14]; Rate 4 g/ha) | Plant response rating (0 to 100), Velvetleaf ([16]; Rate 4 g/ha)
1: Plant response rating, Corn ([2]; Rate 200 g/ha, PREEMERGENCE) | Plant response rating, Rice ([5]; PREEMERGENCE, Rate 50 g/ha)
2: Plant response rating, Cheatgrass ([1]; Rate 200 g/ha, PREEMERGENCE) | Plant response rating, Rice ([5]; Rate 200 g/ha, PREEMERGENCE) | Plant response rating, Wheat ([6]; Rate 200 g/ha, PREEMERGENCE)
60: Plant response rating (0 to 100), Lambsquarters ([13]; Rate 4 g/ha) | Plant response rating (0 to 100), Lambsquarters ([13]; Rate 16 g/ha) | Plant response rating Duck salad ([17]; 62 g/ha)
95: Plant response rating Barnyardgrass 2 ([18]; 62 g/ha)
50: Plant response rating, Sorghum ([14]; 62 g/ha)
6: Plant response rating, Cheatgrass ([1]; POSTEMERGENCE, Rate 50 g/ha) | Plant response rating, Wheat ([6]; Rate 200 g/ha, POSTEMERGENCE) | Plant response rating, Wild oat ([7]; Rate 200 g/ha, POSTEMERGENCE)
7: Plant response rating, Cheatgrass ([1]; POSTEMERGENCE, Rate 200 g/ha)
0: Plant response rating, Cheatgrass ([1]; PREEMERGENCE, Rate 50 g/ha) | Plant response rating, Corn ([2]; PREEMERGENCE, Rate 50 g/ha) | Plant response rating, Cotton ([3]; PREEMERGENCE, Rate 50 g/ha) | Plant response rating, Wheat ([6]; PREEMERGENCE, Rate 50 g/ha) | Plant response rating, Wild oat ([7]; PREEMERGENCE, Rate 50 g/ha) | Plant response rating (0 to 100), Downy Brome ([11]; Rate 4 g/ha) | Plant response rating (0 to 100), Duck salad [17, 19]
80: Plant response rating (0 to 100), Velvetleaf ([16]; Rate 16 g/ha) | Plant response rating Duck salad ([17]; 250 g/ha)
